Data from patent US10695321B2, “Use of glycopyrrolate for treating tachycardia” (Heptares Therapeutics Limited, priority 2011, dated 2020).

Tested on: subjects with COPD
Test: Phase IIa placebo-controlled crossover dose-ranging study, heart rate (vital signs) after single inhaled dose
Type: in vivo, human
Details: for Adjusted Mean for Average Change in Heart Rate from Test day Baseline: ANCOVA
Protocol: The study was a Phase IIa, multi-centre, randomised, double-blind, placebo-controlled, crossover, dose-ranging study using four dose levels of glycopyrronium bromide in subjects with COPD. A total of 40 subjects were required to complete the study.
Subjects were randomised to receive a single inhaled dose of 20, 125, 250 and 400 μg of glycopyrronium bromide in ascending order, with a placebo dose randomised into the sequence over 5 study visits. Subjects were randomised to receive treatment on Study Day 1 prior to dosing. All doses, including placebo, were administered using the Miat Monohaler.
The Treatment period then consisted of five study visits (separated by a 5-14-day wash-out period), during which subjects were dosed with a single inhaled dose of glycopyrronium bromide using a Miat Monohaler, in ascending order (20, 125, 250 or 400 μg). A placebo was randomly administered (using a Miat Monohaler) at one of the study visits; subsequent visits continued with the next highest dose of glycopyrronium bromide to that which was administered prior to the placebo.
All subjects were scheduled to be dosed between 08:00 and 10:00 am. For individual subjects, dosing was at the same time of day (±30 minutes). At each dosing visit, subjects received a single dose of glycopyrronium bromide or placebo administered via Miat Monohaler. Each different dose (20, 125, 250 or 400 μg) was contained in one capsule. An appropriate number of Miat Monohalers to conduct the study was also supplied to the site. A new Miat Monohaler was used to administer each dose at each visit.
copyrronium bromide was presented in size 3, white opaque, hard, gelatin capsules packaged in aluminium pouches. The capsules were presented in four dose strengths containing 20, 125, 250, or 400 μg glycopyrronium bromide. In addition to glycopyrronium bromide, excipient present in the capsule formulation consisted of the PowderHale^TM formulation of lactose and magnesium stearate.
All vital signs were measured on each study day, including heart rate (with the subject semi-supine for 5 minutes prior to measurement); blood pressure; respiratory rate and temperature were measured at each visit and before receiving study medication (pre-treatment), if applicable. Blood pressure and heart rate were also measured at 45, 90 minutes and 5, 10, 20 and 30 hours post-treatment on study days.
The statistical analyses were to be reported using summary tables and data listings. Statistical tests for the evaluation were to be performed at the 0.05 significance level using a two-sided test.
All analyses and tabulations were to be performed using SASS Version 6.12 on a PC platform. Continuous variables were to be summarised with sample size (n), mean, standard deviation (SD), minimum, median, and maximum. […] The mean was to have one extra decimal place and the standard deviation was to have two extra decimal places. Categorical variables were to be summarised with number and percentage of subjects.

[1] = 20 μg single inhaled dose, 45 mins post-dose
[2] = 20 μg single inhaled dose, 90 mins post-dose
[3] = 20 μg single inhaled dose, 5 hrs post-dose
[4] = 20 μg single inhaled dose, 10 hrs post-dose
[5] = 20 μg single inhaled dose, 20 hrs post-dose
[6] = 20 μg single inhaled dose, 30 hrs post-dose
[7] = 20 μg single inhaled dose, pre-dose to 45 mins post-dose
[8] = 20 μg single inhaled dose, pre-dose to 90 mins post-dose
[9] = 20 μg single inhaled dose, pre-dose to 5 hours post-dose
[10] = 20 μg single inhaled dose, pre-dose to 10 hours post-dose
[11] = 20 μg single inhaled dose, pre-dose to 20 hours post-dose
[12] = 125 μg single inhaled dose, 45 mins post-dose
[13] = 125 μg single inhaled dose, 90 mins post-dose
[14] = 125 μg single inhaled dose, 5 hrs post-dose
[15] = 125 μg single inhaled dose, 10 hrs post-dose
[16] = 125 μg single inhaled dose, 20 hrs post-dose
[17] = 125 μg single inhaled dose, 30 hrs post-dose
[18] = 125 μg single inhaled dose, pre-dose to 45 mins post-dose
[19] = 125 μg single inhaled dose, pre-dose to 90 mins post-dose
[20] = 125 μg single inhaled dose, pre-dose to 5 hours post-dose
[21] = 125 μg single inhaled dose, pre-dose to 10 hours post-dose
[22] = 125 μg single inhaled dose, pre-dose to 20 hours post-dose
[23] = 125 μg single inhaled dose, pre-dose to 30 hours post-dose

## C[N+]1(C)CCC(OC(=O)C(O)(c2ccccc2)C2CCCC2)C1 (stereo not drawn) [glycopyrronium bromide]
[1]
  Heart Rate Mean: 70.3 bpm
  Heart Rate Median: 68.0 bpm
[2]
  Heart Rate Mean: 72.5 bpm
  Heart Rate Median: 71.0 bpm
[3]
  Heart Rate Mean: 72.8 bpm
  Heart Rate Median: 74.0 bpm
[4]
  Heart Rate Mean: 69.1 bpm
  Heart Rate Median: 68.0 bpm
[5]
  Heart Rate Mean: 68.8 bpm
  Heart Rate Median: 69.5 bpm
[6]
  Heart Rate Mean: 69.8 bpm
  Heart Rate Median: 70.0 bpm
[7]
  Heart Rate Change from Test day Baseline, Mean: −2.5 bpm
  Heart Rate Change from Test day Baseline, Median: −2.0 bpm
[8]
  Heart Rate Change from Test day Baseline, Mean: −0.2 bpm
  Heart Rate Change from Test day Baseline, Median: 0.0 bpm
[9]
  Heart Rate Change from Test day Baseline, Mean: −0.0 bpm
  Heart Rate Change from Test day Baseline, Median: 1.0 bpm
[10]
  Heart Rate Change from Test day Baseline, Mean: −3.4 bpm
  Heart Rate Change from Test day Baseline, Median: −1.0 bpm
[11]
  Heart Rate Change from Test day Baseline, Mean: −3.6 bpm
  Heart Rate Change from Test day Baseline, Median: −3.0 bpm
20 μg single inhaled dose, pre-dose to 30 hours post-dose
  Heart Rate Change from Test day Baseline, Mean: −2.7 bpm
20 μg, to 45 mins post-dose
  Adjusted Mean for Average Change in Heart Rate from Test day Baseline: −2.323 bpm
20 μg, to 45 mins post-dose, p-value 0.997
  Dose v Placebo Difference, adjusted mean change in Heart Rate from Test day Baseline: 0.005 bpm
20 μg, to 90 mins post-dose
  Adjusted Mean for Average Change in Heart Rate from Test day Baseline: 0.033 bpm
20 μg, to 90 mins post-dose, p-value 0.489
  Dose v Placebo Difference, adjusted mean change in Heart Rate from Test day Baseline: −1.239 bpm
20 μg, to 5 hours post-dose
  Adjusted Mean for Average Change in Heart Rate from Test day Baseline: 1.933 bpm
20 μg, to 5 hours post-dose, p-value 0.945
  Dose v Placebo Difference, adjusted mean change in Heart Rate from Test day Baseline: −0.114 bpm
20 μg, to 10 hours post-dose
  Adjusted Mean for Average Change in Heart Rate from Test day Baseline: −0.126 bpm
20 μg, to 10 hours post-dose, p-value 0.349
  Dose v Placebo Difference, adjusted mean change in Heart Rate from Test day Baseline: 1.698 bpm
20 μg, to 20 hours post-dose
  Adjusted Mean for Average Change in Heart Rate from Test day Baseline: −4.339 bpm
20 μg, to 20 hours post-dose, p-value 0.068
  Dose v Placebo Difference, adjusted mean change in Heart Rate from Test day Baseline: −2.872 bpm
20 μg, to 30 hours post-dose
  Adjusted Mean for Average Change in Heart Rate from Test day Baseline: −0.880 bpm
20 μg, to 30 hours post-dose, p-value 0.379
  Dose v Placebo Difference, adjusted mean change in Heart Rate from Test day Baseline: −1.499 bpm
[12]
  Heart Rate Mean: 65.5 bpm
  Heart Rate Median: 63.5 bpm
[13]
  Heart Rate Mean: 67.6 bpm
  Heart Rate Median: 69.0 bpm
[14]
  Heart Rate Mean: 70.6 bpm
  Heart Rate Median: 73.0 bpm
[15]
  Heart Rate Mean: 67.0 bpm
  Heart Rate Median: 67.0 bpm
[16]
  Heart Rate Mean: 66.4 bpm
  Heart Rate Median: 66.0 bpm
[17]
  Heart Rate Mean: 72.1 bpm
  Heart Rate Median: 72.0 bpm
[18]
  Heart Rate Change from Test day Baseline, Mean: −3.8 bpm
  Heart Rate Change from Test day Baseline, Median: −4.0 bpm
[19]
  Heart Rate Change from Test day Baseline, Mean: −1.8 bpm
  Heart Rate Change from Test day Baseline, Median: −2.0 bpm
[20]
  Heart Rate Change from Test day Baseline, Mean: 1.2 bpm
  Heart Rate Change from Test day Baseline, Median: 0.5 bpm
[21]
  Heart Rate Change from Test day Baseline, Mean: −2.1 bpm
  Heart Rate Change from Test day Baseline, Median: −3.0 bpm
[22]
  Heart Rate Change from Test day Baseline, Mean: −2.5 bpm
  Heart Rate Change from Test day Baseline, Median: −1.5 bpm
[23]
  Heart Rate Change from Test day Baseline, Mean: 2.8 bpm
  Heart Rate Change from Test day Baseline, Median: 1.0 bpm
125 μg, to 45 mins post-dose
  Adjusted Mean for Average Change in Heart Rate from Test day Baseline: −2.854 bpm
125 μg, to 45 mins post-dose, p-value 0.712
  Dose v Placebo Difference, adjusted mean change in Heart Rate from Test day Baseline: −0.526 bpm
125 μg, to 90 mins post-dose
  Adjusted Mean for Average Change in Heart Rate from Test day Baseline: −0.650 bpm
125 μg, to 90 mins post-dose, p-value 0.240
  Dose v Placebo Difference, adjusted mean change in Heart Rate from Test day Baseline: −1.921 bpm
125 μg, to 5 hours post-dose
  Adjusted Mean for Average Change in Heart Rate from Test day Baseline: 2.382 bpm
125 μg, to 5 hours post-dose, p-value 0.826
  Dose v Placebo Difference, adjusted mean change in Heart Rate from Test day Baseline: 0.335 bpm
125 μg, to 10 hours post-dose
  Adjusted Mean for Average Change in Heart Rate from Test day Baseline: −0.186 bpm
125 μg, to 10 hours post-dose, p-value 0.339
  Dose v Placebo Difference, adjusted mean change in Heart Rate from Test day Baseline: 1.638 bpm
125 μg, to 20 hours post-dose
  Adjusted Mean for Average Change in Heart Rate from Test day Baseline: −1.590 bpm
125 μg, to 20 hours post-dose, p-value 0.932
  Dose v Placebo Difference, adjusted mean change in Heart Rate from Test day Baseline: −0.123 bpm
125 μg, to 30 hours post-dose
  Adjusted Mean for Average Change in Heart Rate from Test day Baseline: 2.796 bpm
125 μg, to 30 hours post-dose, p-value 0.168
  Dose v Placebo Difference, adjusted mean change in Heart Rate from Test day Baseline: 2.177 bpm
250 μg single inhaled dose, 45 mins post-dose
  Heart Rate Mean: 65.1 bpm
